{"source": "patent US6506555B1", "about": "“Use of HIV protease inhibiting compounds” (Institut National de la Sante et de la Recherche Medicale …, priority 1998, dated 2003)", "key": {"[1]": {"molecular_target": "T1, 20S proteasomes isolated from murine B8 fibroblasts (Mus musculus, UniProt O55234+P70195+Q60692)", "T1 construct": "20S proteasomes isolated from murine B8 fibroblasts; endogenous in cells; host or cells: murine B8 fibroblasts; 20S proteasome purified from the cells", "experiment": "Hydrolysis of fluorogenic substrates by isolated 20S proteasomes", "type": "biochemical", "settings": "for \"chimotrypsin-like\" activity (hydrolysis of Suc-LLVY-MCA), comparison of four HIV-1 protease inhibitors: different batch of purified proteasomes, increasing concentrations", "protocol": "FIGS. 4B, 4C and 4D show the hydrolysis of the fluorogenic substrate (100 μM Suc-LLVY-MCA, 100 μM (Z)-GGL-MCA and 400 μM Bz-VGR-MCA) of the 20S proteasomes isolated from murine B8 fibroblasts, as a function of variable concentrations of ritonavir and of LLnL (N-acetyl-L-leucinyl-L-leucinal-L-norleucinal, known inhibitor of the proteasome). The results are reported for one hour of digestion with the 20S proteasome (500 ng) in a final volume of 100 μl. The values were located in a linear detection domain and are the mean values of triplicates with standard errors of less than 3%.\nThe hydrolysis of Suc-LLVY-MCA by the 20S murine proteasomes was tested according to the method described in Example 4.2. under identical conditions except for the fact that a different batch of purified proteasomes was used. The hydrolysis of Suc-LLVY-MCA was measured in the presence of increasing concentrations of ritonavir, nelfinavir (Roche), saquinavir (mesylate) and indinavir (active ingredient of Crixivan® marketed by Merck and Sharp and Dohme). The HIV protease inhibitors were dissolved beforehand in ethanol, methanol, DMSO and water respectively, for use in vitro (FIG. 4E)."}, "cytotoxic T lymphocytes [2]": {"tested_on": "cytotoxic T lymphocytes", "type": "in vivo, C57BL/6 mice", "settings": "for swelling of the footpad after injection of LCMV: mice infected in the footpad with LCMV-WE, swelling after seven to eight days"}, "cytotoxic T lymphocytes [3]": {"tested_on": "cytotoxic T lymphocytes", "type": "in vivo, C57BL/6 mice", "settings": "splenocytes eight days after i.v. LCMV-WE; EL4 cells sensitized with GP33-41 or NP peptide"}, "[4]": {"settings": "patients with hepatic cytolysis (cytolysis +)"}, "[5]": {"settings": "patients without hepatic cytolysis (cytolysis −)"}, "[6]": {"settings": "100 μM substrate, one hour digestion, 500 ng 20S proteasome"}}, "note": "Counter-ions that a name gives are not always drawn. Like-named read-outs stand apart in the source and are kept apart here."}
{"compound": "Cc1c(O)cccc1C(=O)N[C@@H](CSc1ccccc1)[C@H](O)CN1C[C@H]2CCCC[C@H]2C[C@H]1C(=O)NC(C)(C)C", "note": "[nelfinavir]", "values": [{"measurement": "\"chimotrypsin-like\" activity (hydrolysis of Suc-LLVY-MCA), comparison of four HIV-1 protease inhibitors", "setting": "[1]", "value": "no inhibition"}, {"measurement": "swelling of the footpad after injection of LCMV", "setting": "cytotoxic T lymphocytes [2]", "value": "not inhibited"}, {"measurement": "lysis of the target cells (direct lysis ex vivo after systemic infection)", "setting": "cytotoxic T lymphocytes [3]", "value": "not inhibited"}]}
{"compound": "CC(C)(C)NC(=O)[C@@H]1C[C@@H]2CCCC[C@@H]2CN1C[C@@H](O)[C@H](Cc1ccccc1)NC(=O)[C@H](CC(N)=O)NC(=O)c1ccc2ccccc2n1", "note": "[saquinavir mesylate]", "values": [{"measurement": "\"chimotrypsin-like\" activity (hydrolysis of Suc-LLVY-MCA), comparison of four HIV-1 protease inhibitors", "setting": "[1]", "value": "inhibits"}]}
{"compound": "CC(C)(C)NC(=O)[C@@H]1C[C@@H]2CCCC[C@@H]2CN1C[C@@H](O)[C@H](Cc1ccccc1)NC(=O)[C@H](CC(N)=O)NC(=O)c1ccc2ccccc2n1", "note": "[saquinavir]", "values": [{"measurement": "\"chymotrypsin-like\" activity of the proteasome", "setting": "[1]; summary statement", "value": "inhibited"}, {"measurement": "\"trypsin\" activity of the proteasome", "setting": "[1]; summary statement", "value": "increased"}, {"measurement": "inhibition of the swelling of the footpads", "setting": "cytotoxic T lymphocytes [2]; 7th day after the treatment, oral dose of 4 mg per day", "value": "up to 73%"}]}
{"compound": "CC(C)(C)NC(=O)[C@@H]1CN(Cc2cccnc2)CCN1C[C@@H](O)C[C@@H](Cc1ccccc1)C(=O)N[C@H]1c2ccccc2C[C@H]1O", "note": "[indinavir]", "values": [{"measurement": "\"chimotrypsin-like\" activity (hydrolysis of Suc-LLVY-MCA), comparison of four HIV-1 protease inhibitors", "setting": "[1]", "value": "no inhibition"}, {"measurement": "swelling of the footpad after injection of LCMV", "setting": "cytotoxic T lymphocytes [2]", "value": "not inhibited"}, {"measurement": "anti-HCV antibody titre", "setting": "HCV; during the therapy", "value": "No increase"}, {"measurement": "patients in whom the ALAT concentrations increased", "setting": "HCV; patients coinfected with HCV and HIV", "value": 10, "unit": "%"}, {"measurement": "Ac index (variation of anti-HCV antibody titre, ratio of the optical densities)", "setting": "HCV; [4]", "value": 0.98}, {"measurement": "variation of CD4", "setting": "HCV; [4]", "value": 29.5, "unit": "cells /mm^3"}, {"measurement": "variation of CD8", "setting": "HCV; [4]", "value": 203.5, "unit": "cells /mm^3"}, {"measurement": "variation of HCV-VL (viral HCV load)", "setting": "HCV; [4]", "value": "2.25 log10 of copies of RNA/ml"}, {"measurement": "Ac index (variation of anti-HCV antibody titre, ratio of the optical densities)", "setting": "HCV; [5]", "value": "1.01(+/−0.13)"}, {"measurement": "variation of CD4", "setting": "HCV; [5]", "value": "21.1(+/−68) cells /mm^3"}, {"measurement": "variation of CD8", "setting": "HCV; [5]", "value": "9.2(+/−222) cells /mm^3"}, {"measurement": "variation of HCV-VL (viral HCV load)", "setting": "HCV; [5]", "value": "+0.41 log10 of copies of RNA/ml"}, {"measurement": "variation of HCV-VL (viral HCV load)", "setting": "HCV; patients without hepatic cytolysis (cytolysis −), listed as IDN", "value": "0.41(+/−0.79) log10 of copies of RNA/ml"}, {"measurement": "lysis of the target cells (direct lysis ex vivo after systemic infection)", "setting": "cytotoxic T lymphocytes [3]", "value": "not inhibited"}]}
{"compound": "N-acetyl-L-leucinyl-L-leucinal-L-norleucinal [LLnL]", "values": [{"measurement": "hydrolysis of the fluorogenic substrate Suc-LLVY-MCA", "setting": "[1]; [6]", "value": "inhibits in a similar manner"}, {"measurement": "hydrolysis of the substrate (Z)-GGL-MCA", "setting": "[1]; [6]", "value": "inhibits in a similar manner"}, {"measurement": "cleavage of the substrate Bz-VGR-MCA (\"trypsin\" type activity)", "setting": "[1]; 400 μM substrate, one hour digestion, 500 ng 20S proteasome", "value": "inhibits in a similar manner"}]}
